Bounds are passed on as bounds.

In data set [1] the test system is Trypanosoma cruzi. In words: Antitrypanosomal activity against Trypanosoma cruzi Tulahuen 2 at 25 uM after 5 days. The data set is classed as functional. The following applies: Tulahuen 2, 120 h, read-out: GI.
Data set [2] concerns Trypanosoma cruzi. In words: Antitrypanosomal activity against Trypanosoma cruzi Tulahuen 2 after 5 days. In kind it is functional. The following applies: Tulahuen 2, 120 h, read-out: ID50 (the source's name).
Data set [3] can be described thus: Cytotoxicity against human THP1 cells after 48 hrs. The data set is classed as cell-based. Conditions: THP-1 cells, read-out: ID50.
Data set [4] can be described thus: Therapeutic index, ID50 for human THP1 cells to ID50 for Trypanosoma cruzi. In kind it is cell-based. Conditions: THP-1 cells versus Trypanosoma cruzi, read-out: TI.

As to `C/C(=N\NC(=S)N1CCCCC1)c1ccc([N+](=O)[O-])cc1`, in the data set with Trypanosoma cruzi [1], the inhibition of growth at 25 µM turned out to be 12%. Besides, in the data set with Trypanosoma cruzi [2], the IC50 is over 25 µM.
For `CNC(=S)N/N=C(\C)c1ccc([N+](=O)[O-])cc1`, the inhibition of growth at 25 µM in the data set with Trypanosoma cruzi [1] amounted to 31%. In the data set with Trypanosoma cruzi [2], the IC50 was over 25 µM. Further, the CC50 at 48 h in data set [3] was over 400 µM. Further, the selectivity ratio in data set [4] was over 16.
In the case of `C/C(=N\NC(=S)N(C)C)c1ccc([N+](=O)[O-])cc1`, the inhibition of growth at 25 µM in the data set with Trypanosoma cruzi [1] came to 100%. In addition, in the data set with Trypanosoma cruzi [2], the IC50 is 0.28 µM. Besides, the CC50 at 48 h in data set [3] was over 400 µM. Besides, the selectivity ratio in data set [4] was over 1430.
Turning to `O=C(Cn1ccnc1[N+](=O)[O-])NCc1ccccc1` [BENZNIDAZOLE], in the data set on Trypanosoma cruzi [1], the inhibition of growth at 25 µM was 100%. In the data set on Trypanosoma cruzi [2], the IC50 came to 7.4 µM. In addition, in data set [3], the CC50 at 48 h was over 300 µM. The selectivity ratio in data set [4] was over 40.
For the molecule `CC1CS(=O)(=O)CCN1/N=C/c1ccc([N+](=O)[O-])o1` (stereo not drawn) [NIFURTIMOX], in the data set with Trypanosoma cruzi [1], the inhibition of growth at 25 µM was determined as 100%. In addition, the IC50 in the data set with Trypanosoma cruzi [2] came out at 7.7 µM. Also, the CC50 at 48 h in data set [3] was over 300 µM. In data set [4], the selectivity ratio is over 38.
